Experimental data taken from patent publication US20090124636A1, “CHEMICAL COMPOUNDS” (priority 2006, published 2009).

Test system: HIV-1 fusion
Experiment: cells
Type: cell-based
Conditions: HIV cell fusion assay; HeLa P4 (CCR5/CD4) and CHO-Tat10 (gp160 JRFL) cells; read-out: IC50
Experimental: The gp160 induced cell-cell fusion assay uses a HeLa P4 cell line and a CHO-Tat10 cell line.
The HeLa P4 cell line expresses CCR5 and CD4 and has been transfected with HIV-1 LTR-β-Galactosidase. The media for this cell line is Dulbecco modified eagle's medium (D-MEM) (without L-glutamine) containing 10% foetal calf serum (FCS), 2 mM L-glutamine, penicillin/streptomycin (Pen/Strep; 100 U/mL penicillin+[…] streptomycin), and 1 μg/ml puromycin.
The CHO cell line is a Tat (transcriptional trans activator)-expressing clone from a CHO JRR17.1 cell line that has been transfected with pTat puro plasmid. The media for this cell line is rich medium for mammalian cell culture originally developed at Roswell Park Memorial Institute RPMI1640 (without L-glutamine) containing 10% FCS, 2 mM L-glutamine, 0.5 mg/ml Hygromycin B and 12 μg/ml puromycin. The CHO JRR17.1 line expresses gp160 (JRFL) and is a clone that has been selected for its ability to fuse with a CCR5/CD4 expressing cell line.
Upon cell fusion, Tat present in the CHO cell is able to transactivate the HIV-1 long terminal repeat (LTR) present in the HeLa cell leading to the expression of the β-Galactosidase enzyme. This expression is then measured using a Fluor Ace™ β-Galactosidase reporter assay kit (Bio-Rad cat no. 170-3150). This kit is a quantitative fluorescent assay that determines the level of expression of β-galactosidase using 4-methylumbelliferyl-galactopyranoside (MUG) as substrate. β-Galactosidase hydrolyses the fluorogenic substrate resulting in release of the fluorescent molecule 4-methylumbelliferone (4 MU). Fluorescence of 4-methylumbelliferone is then measured on a fluorometer using an excitation wavelength of 360 nm and emission wavelength of 460 nm.

| Structure (SMILES) | IC50 [nM] |
| --- | --- |
| Cc1ncnc(C)c1C(=O)N1CCC(C)(N2CC[C@@H](N(Cc3ccccc3)C(=O)C3CC(F)(F)C3)C2)CC1 [Example 67] | 44.3 |
| CCc1noc(C)c1C(=O)N1CCC(C)(N2CC[C@@H](N(Cc3ccccc3)C(=O)C3CC3)C2)CC1 [Example 68] | 61.6 |
| Cc1cccc(C)c1C(=O)N1CCC(C)(N2CC[C@@H](N(C=O)Cc3ccccc3F)C2)CC1 [Example 69] | 123 |
| Cc1ncnc(C)c1C(=O)N1C2CCC1CC(N1CCC(N(Cc3ccccc3)C(=O)C3CC3)C1)C2 (stereo not drawn) [Example 71] | 4.27 |
| Cc1ccccc1C(=O)N1C2CCC1CC(N1CCC(N(Cc3ccccc3)C(=O)C3CC3)C1)C2 (stereo not drawn) [Example 72] | 97.3 |

Same assay, conditions: Human immunodeficiency virus 1, HeLaP4

| Structure (SMILES) | IC50 [nM] |
| --- | --- |
| Cc1ccnc(C)c1C(=O)N1[C@@H]2CC[C@H]1C[C@H](N1CC[C@@H](N(Cc3ccccc3)C(=O)C3CC3)C1)C2 [Example 70, N-benzyl-N-((3R)-1-[(3-exo)-8-[(2,4-dimethylpyridin-3-yl)carbonyl]-8-azabicyclo[3.2.1]oct-3-yl]pyrrolidin-3-yl)cyclopropanecarboxamide] | 2.65 |
